One experiment concerns the target T1, human μ-opioid receptor (Homo sapiens, UniProt P35372).
T1 construct: expressed in transfected cells; host or cells: HEK-293 cells; membrane homogenates
Put plainly: Radioligand binding assay, [3H]DAMGO, transfected HEK-293 cell membranes. The protocol: This investigation was conducted using a radioligand binding assay.
Non-specific binding was determined in the presence of 10 μM naloxone. Assay volume and format was 250 μl in 96-well plate. The test compound was added as a 10-fold concentrated solution, and the maximum tolerable DMSO concentration was 1%. Following incubation, the samples were filtered rapidly under vacuum through glass fiber filters (GF/B, Packard), pre-soaked with 0.3% PEI, and rinsed several times with ice-cold 50 mM Tris-HCl using a 96-sample cell harvester (Unifilter, Packard). The filters were dried, and counted for radioactivity in a scintillation counter (Topcount, Packard) using a scintillation cocktail (Microscint 0, Packard). The results were expressed as percent inhibition of the control radioligand specific binding.
Specific ligand binding to the receptors is the difference between the total binding and the non-specific binding determined in the presence of an excess of unlabelled ligand. The results are expressed as a percent of control specific binding and as a percent inhibition of control specific binding obtained in the presence of the test compounds.
The IC50 values (concentration causing a half-maximal inhibition of control specific binding) and Hill coefficients (nH) were determined by non-linear regression analysis of the competition curves using Hill equation curve fitting. […] Here, L is the concentration of radioligand in the assay, and KD is the affinity of the radioligand for the receptor.

The target in experiment [1] is β2 adrenergic receptors in guinea pig trachea (Cavia porcellus, UniProt Q8K4Z4).
Protocol: In this experiment, β2 adrenergic receptor agonist activities were functionally determined using a quantitative ex-vivo guinea pig trachea bioassay. […] Following extensive washings and recovery to the initial state, the tissues were exposed to a single or several cumulative concentrations of the test compounds or the same agonist. Each concentration was left in contact with the tissues until a stable response was obtained. […] Assay volume and format was 20 ml organ baths. […] Following washings, the tissues were contracted again with carbachol, and then exposed to increasing concentrations of the test compound or the same agonist. […] If it occurred, a recovery of contraction by the test compound indicated an antagonist activity at the β2 receptors. The parameter measured was the maximal change in tension induced by each compound concentration. […] The agonist efficacy and potency of the test compounds were evaluated respectively in terms of Emax values (maximum response) and EC50 values (concentration producing a half-maximum response). These were determined from the concentration-response curves.
The subject of a further experiment is μ-opioid receptor. Kind of experiment: Functional ex-vivo isolated organ bioassay (Guinea pig ileum), μ-opioid agonist response. To be noted: Applicants believe results may be faulty.
The mark [2] stands for this setting: Table 12, test concentration 1.0E−03 M.
Setting [3] is: Table 12, test concentration 1.0E−04 M.
Where [4] appears, read: Table 12, test concentration 1.0E−05 M.
The mark [5] stands for this setting: Table 12, test concentration 1.0E−06 M.
Setting [6] is: Table 12, test concentration 3.0E−05 M.
Setting [7] is: Table 12, test concentration 3.0E−06 M.
The mark [8] stands for this setting: Table 12, test concentration 3.0E−07 M.
The mark [9] stands for this setting: Table 12, test concentration 3.0E−08 M.
The mark [10] stands for this setting: calculated from the data in Table 12.
Setting [11] is: first assay, test concentration 1.0E−05 M.
Setting [12] is: repeat assay, test concentration 1.0E−03 M.
Where [13] appears, read: Table 12, test concentration 3.0E−04 M.

pIC50, pKi: −log10 of the molar value. Values joined by “and” are separate entries in the source; they are usually repeats but may differ in a detail not shown here. Equal values may be shown once. Read-outs that look alike come from different tables or passages of the source.

T1 sequence (P35372 whole entry): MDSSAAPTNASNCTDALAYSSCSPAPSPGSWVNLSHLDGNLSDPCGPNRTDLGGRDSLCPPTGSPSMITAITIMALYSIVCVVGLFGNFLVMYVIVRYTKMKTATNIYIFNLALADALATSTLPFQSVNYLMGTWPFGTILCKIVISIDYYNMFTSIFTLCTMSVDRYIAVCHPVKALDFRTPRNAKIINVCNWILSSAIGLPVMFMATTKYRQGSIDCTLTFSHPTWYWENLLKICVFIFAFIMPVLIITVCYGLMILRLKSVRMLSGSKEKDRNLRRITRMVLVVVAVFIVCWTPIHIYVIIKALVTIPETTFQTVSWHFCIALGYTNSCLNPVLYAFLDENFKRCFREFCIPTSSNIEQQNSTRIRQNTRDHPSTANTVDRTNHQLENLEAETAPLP
Sequence of β2 adrenergic receptors in guinea pig trachea (Q8K4Z4 whole entry): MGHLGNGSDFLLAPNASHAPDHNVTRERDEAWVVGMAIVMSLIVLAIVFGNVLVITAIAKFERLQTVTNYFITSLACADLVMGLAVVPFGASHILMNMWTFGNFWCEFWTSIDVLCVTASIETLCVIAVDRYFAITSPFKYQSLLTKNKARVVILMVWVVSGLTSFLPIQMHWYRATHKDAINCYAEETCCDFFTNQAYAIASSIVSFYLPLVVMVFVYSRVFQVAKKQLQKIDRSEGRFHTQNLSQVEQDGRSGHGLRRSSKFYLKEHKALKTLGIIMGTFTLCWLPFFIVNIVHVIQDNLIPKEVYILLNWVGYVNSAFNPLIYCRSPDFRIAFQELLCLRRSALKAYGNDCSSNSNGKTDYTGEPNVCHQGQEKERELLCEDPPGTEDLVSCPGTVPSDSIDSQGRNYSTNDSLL

Regarding `C[C@@H](NC(=O)[C@@H](N)Cc1ccc(O)cc1)C(=O)NCC(=O)N(C)[C@@H](Cc1ccccc1)C(=O)NCCO` [DAMGO, reference compound], the “nH (Hill coefficient)” value at human μ-opioid receptor (reference compound, three independent experiments) was 1.0 and 0.9.
Take `CC(C)(C)NCC(O)c1ccc(O)c(CO)c1` (centres unmarked) [Salbutamol, salbutamol]: the “Percent of the Control Response to Salbutamol at 3.0E−07 M, Mean” value in experiment [1] (Table 6, concentration 3.0E−08 M) was 50%; in experiment [1] (Table 6, concentration 3.0E−09 M) it was 8%; in experiment [1] (Table 6, highest concentration 3.0E−07 M + ICI 118551 3.0E−07 M), 2%; in experiment [1] (Table 7, concentration 3.0E−08 M) it was 53%; in experiment [1] (Table 7, concentration 3.0E−09 M) it was 11%; in experiment [1] (Table 7, highest concentration 3.0E−07 M + ICI 118551 3.0E−07 M), 5%.
As to `CC(C)N[C@H]1CCn2c(=O)[nH]c3cccc(c32)[C@@H]1O` [6S,7S enantiomer, 6S,7S zilpaterol enantiomer], the pIC50 on human μ-opioid receptor is 4.77. Further, the pKi on human μ-opioid receptor was 5.15. In addition, the “binding to the μ-opioid receptor” value on human μ-opioid receptor is on record as “greater binding”. Moreover, the “% of Control Specific Binding, Mean” value on human μ-opioid receptor (setting [2]) was 1.2%; at human μ-opioid receptor (setting [3]) it was 16.4%; on human μ-opioid receptor (setting [4]), 60.2%; on human μ-opioid receptor (setting [5]), 87.7%; on human μ-opioid receptor (setting [6]), 36.1%; on human μ-opioid receptor (setting [7]), 79.1%. Besides, the “% of Control Specific Binding, Mean” value was determined as 95.3% on human μ-opioid receptor (setting [8]), 95.8% on human μ-opioid receptor (setting [9]), 66.3% on human μ-opioid receptor (setting [11]) and 0.2% at human μ-opioid receptor (setting [12]). The “% of Control Specific Binding, Run 1” value was 1.4% at human μ-opioid receptor (setting [2]); 15.9% at human μ-opioid receptor (setting [3]); 61.1% on human μ-opioid receptor (setting [4]); 90.9% on human μ-opioid receptor (setting [5]); 34.9% on human μ-opioid receptor (setting [6]); 81.0% at human μ-opioid receptor (setting [7]). Further, the “% of Control Specific Binding, Run 1” value on human μ-opioid receptor (setting [8]) was 97.5%; on human μ-opioid receptor (setting [9]), 93.9%; on human μ-opioid receptor (setting [11]), 67.2%; at human μ-opioid receptor (setting [12]), 0.1%. In addition, the “% of Control Specific Binding, Run 2” value stood at 0.9% on human μ-opioid receptor (setting [2]); 16.9% at human μ-opioid receptor (setting [3]); 59.2% on human μ-opioid receptor (setting [4]); 84.6% at human μ-opioid receptor (setting [5]); 37.2% on human μ-opioid receptor (setting [6]); 77.2% at human μ-opioid receptor (setting [7]). Besides, the “% of Control Specific Binding, Run 2” value came to 93.2% on human μ-opioid receptor (setting [8]), 97.7% at human μ-opioid receptor (setting [9]), 65.4% at human μ-opioid receptor (setting [11]) and 0.4% at human μ-opioid receptor (setting [12]). Also, the “nH (Hill coefficient)” value on human μ-opioid receptor (setting [10]) is listed as 0.9. In addition, the “% Inhibition of Control Specific Binding” value on human μ-opioid receptor (setting [11]) amounted to 34%; at human μ-opioid receptor (setting [12]), 100%.
At human μ-opioid receptor, `CC(C)N[C@@H]1CCn2c(=O)[nH]c3cccc(c32)[C@H]1O` (single isomer, unassigned) [6R,7R enantiomer, 6R,7R zilpaterol enantiomer] showed a negative logarithm of the IC50 (pIC50) of 3.49. The pKi at human μ-opioid receptor was 3.89; at human μ-opioid receptor (calculated from the data in Table 12, Cheng Prusoff) it was 3.89. The “binding to the μ-opioid receptor” value on human μ-opioid receptor is reported as “binds weakly”. For the same molecule, the “% of Control Specific Binding, Mean” value on human μ-opioid receptor (setting [2]) was determined as 24.1%; on human μ-opioid receptor (setting [3]) it was 71.1%; at human μ-opioid receptor (setting [4]) it was 81.3%; on human μ-opioid receptor (setting [5]), 89.3%; at human μ-opioid receptor (setting [13]), 43.5%; at human μ-opioid receptor (setting [6]) it was 80.7%. The results for the “% of Control Specific Binding, Mean” value at human μ-opioid receptor (setting [8]), at human μ-opioid receptor (setting [11]) and on human μ-opioid receptor (setting [12]) were 93.6%, 92.9% and 17.9%, respectively. In addition, the “% of Control Specific Binding, Run 1” value on human μ-opioid receptor (setting [2]) is 23.0%; at human μ-opioid receptor (setting [3]), 71.3%; at human μ-opioid receptor (setting [4]), 80.4%; on human μ-opioid receptor (setting [6]) it was 73.9%; at human μ-opioid receptor (setting [7]), 92.1%; on human μ-opioid receptor (setting [8]) it was 94.8%. Also, the “% of Control Specific Binding, Run 1” value turned out to be 90.8% on human μ-opioid receptor (setting [11]) and 17.8% on human μ-opioid receptor (setting [12]). Also, the “% of Control Specific Binding, Run 2” value at human μ-opioid receptor (setting [2]) is on record as 25.2%; at human μ-opioid receptor (setting [3]), 70.8%; on human μ-opioid receptor (setting [4]) it was 82.1%; on human μ-opioid receptor (setting [5]), 87.5%; at human μ-opioid receptor (setting [13]) it was 40.4%; on human μ-opioid receptor (setting [6]), 87.5%. Further, the “% of Control Specific Binding, Run 2” value at human μ-opioid receptor (setting [7]) is listed as 88.7%; on human μ-opioid receptor (setting [8]), 92.4%; on human μ-opioid receptor (setting [11]) it was 95.0%; on human μ-opioid receptor (setting [12]), 18.0%. The “nH (Hill coefficient)” value at human μ-opioid receptor (setting [10]) is given as 0.9. Moreover, the “% Inhibition of Control Specific Binding” value is listed as 7% on human μ-opioid receptor (setting [11]) and 82% on human μ-opioid receptor (setting [12]). Besides, the “μ-opioid agonist response” value with μ-opioid receptor was “greater μ-opioid agonist response than both the 6S,7S zilpaterol enantiomer and racemic trans zilpaterol”.
The molecule `CC(C)NC1CCn2c(=O)[nH]c3cccc(c32)C1O` (racemic) [Racemic trans, 4,5,6,7-tetrahydro-7-hydroxy-6-(isopropylamino)imidazo[4,5,1-jk]-[1]benzazepin-2(1H)-one, reference compound] had a negative-log IC50 (pIC50) at human μ-opioid receptor of 4.51. At human μ-opioid receptor, the pKi was 4.89. In addition, the “binding to the μ-opioid receptor” value on human μ-opioid receptor was “greater binding”. For the same molecule, the “% of Control Specific Binding, Mean” value on human μ-opioid receptor (setting [2]) amounted to 2.9%; at human μ-opioid receptor (setting [3]), 23.7%; at human μ-opioid receptor (setting [4]) it was 73.7%; on human μ-opioid receptor (setting [5]) it was 90.0%; at human μ-opioid receptor (setting [6]), 47.5%; at human μ-opioid receptor (setting [7]), 81.8%. Besides, the “% of Control Specific Binding, Mean” value at human μ-opioid receptor (setting [8]) is 91.2%; on human μ-opioid receptor (setting [9]) it was 98.3%; on human μ-opioid receptor (setting [11]) it was 76.2%; at human μ-opioid receptor (setting [12]), 2.2%. Besides, the “% of Control Specific Binding, Run 1” value was 2.4% on human μ-opioid receptor (setting [2]); 24.5% at human μ-opioid receptor (setting [3]); 76.7% at human μ-opioid receptor (setting [4]); 84.9% on human μ-opioid receptor (setting [5]); 49.3% on human μ-opioid receptor (setting [6]); 76.2% at human μ-opioid receptor (setting [7]). Further, the “% of Control Specific Binding, Run 1” value on human μ-opioid receptor (setting [8]) came to 92.1%; at human μ-opioid receptor (setting [9]), 105.8%; on human μ-opioid receptor (setting [11]), 76.2%; at human μ-opioid receptor (setting [12]) it was 1.6%. Also, the “% of Control Specific Binding, Run 2” value on human μ-opioid receptor (setting [2]) came out at 3.3%; on human μ-opioid receptor (setting [3]), 22.9%; on human μ-opioid receptor (setting [4]), 70.8%; at human μ-opioid receptor (setting [5]), 95.1%; on human μ-opioid receptor (setting [6]) it was 45.6%; on human μ-opioid receptor (setting [7]), 87.4%. In addition, the figures for the “% of Control Specific Binding, Run 2” value at human μ-opioid receptor (setting [9]), at human μ-opioid receptor (setting [11]) and at human μ-opioid receptor (setting [12]) were 90.9%, 76.2% and 2.9%, respectively. Besides, the “nH (Hill coefficient)” value at human μ-opioid receptor (setting [10]) is 0.9. Also, the “% Inhibition of Control Specific Binding” value at human μ-opioid receptor (setting [11]) was 24%; on human μ-opioid receptor (setting [12]), 98%.

The values above are taken from US8268813B2, “Zilpaterol enantiomer compositions and methods of making and using such compositions” (Intervet International B.V., priority 2006, dated 2012).
